These results are taken from patent US6046219A, “Method for the treatment of conditions mediated by collagen formation together with cell proliferation by application of inhibitors of protein hydroxylation” (Cornell Research Foundation, Inc., priority 1997, dated 2000).

“Also recorded” adds a separate entry of the source.

For data set [1], the system named is human umbilical vein endothelial cells (HUVEC). As to the kind of experiment: Endothelial cell proliferation (tritiated thymidine incorporation). Type of data set: cell-based. The following applies: 24 hours. On the procedure: Human umbilical vein endothelial cells ("HUVEC") were treated with the specified concentrations of deferiprone (X-axis) for 24 hours prior to evaluating tritiated thymidine (3H-Tdr) incorporation into DNA for 4 hours. The results are expressed per well and the bars at each point reflect the standard error of the mean (S.E.M., n=3). Decreasing 3H-Tdr incorporation would reflect reduced endothelial cells proliferation.
Endothelial cell proliferation was determined by essentially the same methods previously disclosed for the determination of smooth muscle proliferation. Human umbilical vein endothelial cells ("HUVEC") were isolated and subcultured in Medium 199 containing 15% fetal bovine serum ("FBS"), endothelial cell growth factor ("ECGF", 5 ng/ml), heparin (9 μg/ml), and antibiotics. The cells were plated in 96-well dishes at 1×10^4 cells per well and then allowed to attach for 24 hours. The medium was removed, and the cells were changed to media containing deferiprone at 50, 100, 200, or 500 μM. After 24 hours, tritiated thymidine was added to the wells and allowed to incorporate into the DNA for 4 hours prior to isolation of the nuclear DNA by standard methods. The results are expressed as the counts per minute ("cpm") of radioactivity per well, which is proportional to the rate of DNA synthesis during the 4 hour labelling period.

A further data set concerns protein hydroxylases. As to the kind of experiment: Inhibition of protein hydroxylases. The settings on record: no data shown. Format: biochemical.
Data set [2] deals with T1, purified human prolyl 4-hydroxylase (Homo sapiens, UniProt P13674).
T1 construct: made in house; host or cells: Spodoptera frugiperda insect cells (baculovirus, co-expression of α- and β-subunits)
T1 sequence (P13674 18-534): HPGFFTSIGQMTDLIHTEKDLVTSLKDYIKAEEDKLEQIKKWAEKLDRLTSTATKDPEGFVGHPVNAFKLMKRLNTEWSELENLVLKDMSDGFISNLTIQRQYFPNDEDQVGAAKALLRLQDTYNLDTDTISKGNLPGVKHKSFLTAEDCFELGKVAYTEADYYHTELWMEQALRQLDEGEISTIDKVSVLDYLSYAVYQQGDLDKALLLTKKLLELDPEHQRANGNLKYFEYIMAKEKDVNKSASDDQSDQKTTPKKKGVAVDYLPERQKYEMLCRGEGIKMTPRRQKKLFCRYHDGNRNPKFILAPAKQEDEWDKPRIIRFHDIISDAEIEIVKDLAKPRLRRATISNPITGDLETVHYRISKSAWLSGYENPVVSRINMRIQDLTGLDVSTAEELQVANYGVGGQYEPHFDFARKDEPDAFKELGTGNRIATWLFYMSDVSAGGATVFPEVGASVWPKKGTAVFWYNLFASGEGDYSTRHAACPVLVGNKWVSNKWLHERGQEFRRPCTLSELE
T1 sequence (P07237 18-508 partner): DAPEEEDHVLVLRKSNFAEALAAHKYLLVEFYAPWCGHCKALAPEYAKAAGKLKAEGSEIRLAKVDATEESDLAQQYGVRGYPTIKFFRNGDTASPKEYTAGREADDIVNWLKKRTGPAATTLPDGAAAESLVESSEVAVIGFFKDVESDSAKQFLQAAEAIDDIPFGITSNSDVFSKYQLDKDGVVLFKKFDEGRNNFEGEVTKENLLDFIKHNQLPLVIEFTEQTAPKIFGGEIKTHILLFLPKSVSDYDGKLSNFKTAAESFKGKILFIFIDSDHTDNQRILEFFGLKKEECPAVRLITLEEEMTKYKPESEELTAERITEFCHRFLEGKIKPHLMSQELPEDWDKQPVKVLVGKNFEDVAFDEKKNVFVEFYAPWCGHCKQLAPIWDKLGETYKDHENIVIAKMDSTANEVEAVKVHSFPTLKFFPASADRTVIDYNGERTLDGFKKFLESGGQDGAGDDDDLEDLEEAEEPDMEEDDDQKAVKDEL
Briefly: Assay of purified human prolyl 4-hydroxylase (14CO2 release from 2-oxoglutarate, cell-free). Format: biochemical. The settings on record: for Prolyl 4-hydroxylase ID50 (purified): purified human enzyme, inhibitory dose that gives 50% reduction of the enzyme-mediated reaction, unit assumed. As to the method:
The effect on the enzyme was determined in a cell-free system by measuring the oxidative decarboxylation of its cofactor 2-oxoglutarate via release of radiolabeled carbon dioxide in a standard reaction mixture also containing ascorbate, ferrous sulfate, and unhydroxylated peptide substrate.
(§1) The inhibitory action of the substances according to the invention, for example on collagen secretion or cell proliferation, can be tested in direct assays of the enzymes mediating the pivotal protein hydroxylations for these biological processes, such as prolyl 4-hydroxylase and deoxyhypusyl hydroxylase. This entails the enzymatic hydroxylation of the appropriate protein precursor, either by the cellular or the purified enzyme, in the presence or absence of compounds of Formulae (I) or (II), with concomitant determination of co-substrate utilization by these enzymes or subsequent isolation of the hydroxylated amino acid and its unhydroxylated precursor. In this manner, the inhibitory potency of any given compound can be measured in the cell-free system, in cell culture, or in tissue, and is expressed as the inhibitory dose that gives a 50% reduction of the enzyme-mediated reaction (ID50). Enzyme is tested in analogy to the method of A. Abbruzzese, H. M. Hanauske-Abel, et al., Biochem. Biophys. Acta, 1077, 159-166 (1991) and of K. Majamaa, H. M. Hanauske-Abel, et al., Eur. J. Biochem. 138, 239-245 (1984), which are hereby incorporated by reference. Table III lists the ID50 values of some of the compounds according to the invention, using purified human prolyl 4-hydroxylase and cellular human deoxyhypusyl hydroxylase as representative protein hydroxylases.
The inhibiting effect of hydroxypyridones on the collagen-hydroxylating enzyme was studied in a cell-free system.
Assay of purified human prolyl 4-hydroxylase
The native α2 β2 -tetrameric enzyme was purified to homogeneity by poly(L-proline) affinity chromatography and DEAE chromatography from the supernatant of Spodoptera frugiperda insect cells cotransfected with recombinant baculovirus transfer vectors for both the human α- and β-subunits. Enzyme activity was determined by trapping of ^14 CO2 released from 2-oxo[1-^14 C][glutarate] according to the procedure of Majamaa, et al., Eur. J. Biochem., 138:239-245 (1984), which is hereby incorporated by reference. Briefly, all incubations were run for 60 minutes at 37° C. in a final volume of 1.0 ml per test sample, containing 0.1 μg enzyme, 0.1 mg heat-denatured (Pro-Pro-Gly)10 ×9 H2 O as hydroxylatable substrate, 0.1 mM 2-oxo[1-^14 C][glutarate] adjusted to 60,000 dpm by mixing with the unlabeled 2-oxoglutarate as cosubstrate, and cofactors (1.6 mM ascorbate, 0.05 mM ferrous sulfate, 0.08 mM dithiothreitol, 2 mg bovine serum albumin, 5 μL catalase). Assays are performed with only one of the active compounds at any given time.

Data set [3] concerns the target T2, cellular human deoxyhypusyl hydroxylase (Homo sapiens, UniProt Q9BU89).
T2 construct: endogenous in cells; host or cells: cultured human cells (smooth muscle cells, B-lymphocytes)
T2 sequence (Q9BU89 1-302): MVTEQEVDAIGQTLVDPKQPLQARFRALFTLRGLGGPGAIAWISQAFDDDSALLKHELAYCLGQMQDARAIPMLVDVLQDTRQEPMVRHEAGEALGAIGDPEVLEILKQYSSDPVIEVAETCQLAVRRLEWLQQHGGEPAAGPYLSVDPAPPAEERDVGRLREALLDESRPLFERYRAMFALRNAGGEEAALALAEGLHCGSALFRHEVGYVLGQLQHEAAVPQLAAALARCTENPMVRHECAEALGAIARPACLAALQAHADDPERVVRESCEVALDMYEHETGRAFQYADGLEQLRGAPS
Briefly: Cellular human deoxyhypusyl hydroxylase (DOHH assay, 3H-spermidine labeling). The settings on record: for Deoxyhypusyl hydroxylase ID50 (cellular): cellular human enzyme, inhibitory dose that gives 50% reduction of the enzyme-mediated reaction, unit assumed. Format: cell-based.
Source text: as §1
The inhibiting effect of hydroxypyridones on the eIF-5A-hydroxylating enzyme was studied in cultured human cells (i.e. smooth muscle cells, B-lymphocytes).
The cellular conversion of the precursor deoxyhypusine to the hydroxylated hypusine in cells was examined, after preincubation with the inhibitor for 60 minutes, by labeling the human cells with ^3 H-spermidine (5 μCi/ml) in 25 cm^2 flasks (1×10^6 cells/flask) for 24 hours prior to cell lysis, precipitation with 10% TCA containing 1 mM each of putrescine, spermidine, and spermine, and hydrolysis in 6 N HCl at 110° C. for 16 hours. The hydrolysate was analyzed for labeled amino acids on an amino acid analyzer by published methods (Park et al., J. Biol. Chem., 257:7217-7222 (1982), which is hereby incorporated by reference). The retention of purified hypusine and deoxyhypusine was determined from standards.

Another data set deals with prolyl hydroxylase. The settings on record: U.S. Pat. No. 4,937,266; cited from earlier work.
Data set [4] deals with T3, purified rat deoxyhypusyl hydroxylase (Rattus norvegicus, UniProt Q5PPJ4).
T3 construct: probably testis; substrate unhydroxylated eIF-5A precursor
T3 sequence (Q5PPJ4 1-302): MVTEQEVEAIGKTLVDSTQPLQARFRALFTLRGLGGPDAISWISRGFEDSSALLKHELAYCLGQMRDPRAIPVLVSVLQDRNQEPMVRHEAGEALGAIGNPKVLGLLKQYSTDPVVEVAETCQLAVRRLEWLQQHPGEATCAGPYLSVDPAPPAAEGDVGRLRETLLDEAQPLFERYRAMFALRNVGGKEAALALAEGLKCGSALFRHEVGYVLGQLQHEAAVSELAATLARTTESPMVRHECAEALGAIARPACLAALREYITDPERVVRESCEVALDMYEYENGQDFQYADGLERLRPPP
Briefly: DOHH assay, purified rat deoxyhypusyl hydroxylase, conversion of deoxyhypusine-containing eIF-5A precursor. Format: biochemical. The following applies: unhydroxylated eIF-5A precursor, purified rat enzyme. On the procedure:
The inhibiting effect of a model peptidomimetic, suitable to serve as carrier for hydroxypyridone warheads, on the activity of the purified eIF-5A-hydroxylating enzyme was studied in a cell-free system.
Enzyme activity was purified and determined as described by Abbruzzese et al., J. Biol. Chem. 261:3085-9 (1986), which is hereby incorporated by reference. Briefly, the enzyme is offered labeled deoxyhypusine-containingeIF-5A precursor. Following standard incubation conditions, the conversion into hypusine residues is measured by chromatographic amino acid separation after protein hydrolysis.

A further data set has as its system certain human cells. The settings on record: Ekblom et al.; cited from earlier work.
The subject of the next data set is HUVEC. As to the kind of experiment: Endothelial cell tube formation on Matrigel. Format: cell-based, human. The settings on record: 24 hours. On the procedure:
HUVEC form tubes when plated on Matrigel and this is a commonly used as an in vitro model of capillary formation. In the FIG. 10A, it is shown that untreated HUVEC form capillary-like tubes (ARROW) when placed on Matrigel for 24 hours.
Endothelial cell tube formation was determined by plating HUVEC on a thick Matrigel (Becton Dickinson Labware) gel at a density of 5×10^4 cells per well of 24 well dish. Deferiprone was incubated with the cells for 30 minutes in solution prior to applying the cells to the Matrigel. The cells were added to the Matrigel-coated well, and, then 4 hours and 24 hours later, the cells were observed and photographed at a reproducible location.

The conditions of data set [5]: orally active; established characteristics; cited from earlier work.
Data set [6] concerns human SMC from fibroproliferative vascular lesions. Briefly: Cell proliferation: DNA synthesis (3H-thymidine) in SMC. Format: cell-based. On the procedure:
The effect of the structural hydroxypyridone analog kojic acid is shown for comparison. Serum-stimulated DNA synthesis in SMC was determined by a 4-hour pulse of ^3 H-thymidine given 20 hours after treatment with L-mimosine and kojic acid (filled symbols). Identically treated, but unlabeled cells cultured in parallel, at that time point were washed and returned to fresh culture media without inhibitor for an additional 20 hours prior to otherwise identical labeling with ^3 H-thymidine (open symbols). Data is expressed as ^3 H-thymidine incorporated per cell to compensate for the reduced cell number in the wake of inhibitor treatment.
Inhibition of DNA synthesis was examined by semiautomated methods. SMC were plated at 1×10^4 cells/well in 96-well microtiter plates at least 24 hours prior to the assay. Agents were introduced into normal serum-containing growth media for 20 hours before the cells were pulsed with ^3 H-thymidine (1 μCi/ml) for 4 hours. Cells were collected with a cell harvester and the DNA-incorporated label determined by scintillation counting (Betaplate; Wallac, Inc., Gaithersburg, Md.) (n=6 per point).

On to `O=c1cc(CO)occ1O` [kojic acid, reference compound], for which, in [1] (FIG. 9), the “inhibition of endothelial cell proliferation” value was “does not inhibit EC proliferation”. For the same molecule, the “inhibition of protein hydroxylases” value in the data set on protein hydroxylases was “does not inhibit protein hydroxylases”.

Take `CCn1ccc(=O)c(O)c1C` [HK-26]: in data set [2], the Prolyl 4-hydroxylase ID50 (purified) stood at 130 µM. In addition, the Deoxyhypusyl hydroxylase ID50 (cellular) in data set [3] is 58 µM.

In the case of `CCOC(=O)[C@@H](N)Cn1ccc(=O)c(O)c1` [--ethyl ester], in data set [2], the Prolyl 4-hydroxylase ID50 (purified) came out at 145 µM.

For `CC(C)(CO)[C@@H](O)C(=O)NCCC(=O)NCCSSCCNC(=O)CCNC(=O)[C@H](O)C(C)(C)CO` [pantethine], the “effect on increased prolyl hydroxylase activity in liver with hepatic fibrosis” value in the data set on prolyl hydroxylase is “inhibited an increased prolyl hydroxylase activity”.

`C=CCn1ccc(=O)c(O)c1C` [HK-16] gave a Prolyl 4-hydroxylase ID50 (purified) in data set [2] of 150 µM. In data set [3], this molecule registered a Deoxyhypusyl hydroxylase ID50 (cellular) of 50 µM.

On to `NC(CO)C1CCC(=O)NC(CO)C(=O)N(C(Cc2ccccc2)C(=O)O)NC1=O` (stereo not drawn) [Mimetic A], for which the “deoxyhypusine-to-hypusine conversion / inhibition of purified deoxyhypusyl hydroxylase” value in [4] is “only weakly inhibitory”; in data set [4] (listed as mimetic A) it was “suppressed”.

Regarding `Cc1ncc(CO)c(C=NNC(=O)c2ccncc2)c1O` [pyridoxal isonicotinyl hydrazone], the “effect on proliferation of certain human cells” value in the data set on certain human cells is given as “stimulates the proliferation”.

Consider `Cc1c(O)c(=O)ccn1C` [HK-1, 1,2-dimethyl-3-hydroxypyrid-4-one], for which the “appearance / viability of treated HUVEC on Matrigel” value with HUVEC (FIG. 10B) is “remain healthy and viable in appearance”. The “formation of capillary-like tubes on Matrigel” value in the data set with HUVEC (HUVEC, FIG. 10, listed as deferiprone) is “blocks the formation of tubular structures; also recorded: block the formation of capillary-like structures; also recorded: blocks capillary formation; also recorded: attach and spread, but do not form capillary-like tubes”. Besides, the “inhibition of endothelial cell proliferation” value in [1] (FIG. 9, listed as deferiprone) is reported as “blocks the proliferation; also recorded: inhibit endothelial cell proliferation”. Moreover, the “inhibition of purified human prolyl 4-hydroxylase” value in data set [2] (cell-free system, FIG. 1) was “directly inhibit”. This molecule also had a Prolyl 4-hydroxylase ID50 (purified) in [2] of 133 µM. Also, the “extraction by the liver from the portal blood” value in data set [5] is “rapidly extracted by the liver from the portal blood”. Also, the “non-specific or toxic effects” value in data set [6] (FIGS. 6, 7) is listed as “did not result from non-specific or toxic effects”. For the same molecule, the “reversibility of suppressive effects (collagen secretion, onset of DNA synthesis)” value in [6] (upon removal of compound) is reported as “reversible”. In addition, the “inhibition of deoxyhypusyl hydroxylase” value in [3] (FIG. 3, assayed in vitro) is “directly inhibit”. Moreover, in data set [3], the Deoxyhypusyl hydroxylase ID50 (cellular) amounted to 90 µM.

In data set [2], `CCOCn1ccc(=O)c(O)c1C` [HK-15] displayed a Prolyl 4-hydroxylase ID50 (purified) of 210 µM. Moreover, in data set [3], the Deoxyhypusyl hydroxylase ID50 (cellular) was 60 µM.

In data set [2], `CCc1c(O)c(=O)ccn1CC` [HK-2] yielded a Prolyl 4-hydroxylase ID50 (purified) of 145 µM. In data set [3], this molecule came in with a Deoxyhypusyl hydroxylase ID50 (cellular) of 50 µM.

Molecule `CCCn1ccc(=O)c(O)c1C` [HK-27] registered a Prolyl 4-hydroxylase ID50 (purified) in data set [2] of 155 µM. In [3], this molecule yielded a Deoxyhypusyl hydroxylase ID50 (cellular) of 50 µM.
